Data: PMC11448502, “Cryo-EM structures of the human P2X1 receptor reveal subtype-specific architecture and antagonism by supramolecular ligand-binding” (Nature Communications, 2024)
Numbering of substitutions follows the chain as printed. “And” between values parts separate entries of the source, which are not always exact repeats. Identical values can stand only once. “Also recorded” adds a separate entry of the source. Like-named read-outs stand apart in the source and are kept apart here.

What was measured:
hP2X1 WT = molecular target: T1, hP2X1 WT (Homo sapiens, UniProt P51575); experiment: ATP dose response (EC50), TEVC in oocytes; assay type: cell-based
T1 construct: hP2X1 mRNA that was made from linearized full-length wild-type or mutant pcDNA 3.1x; expressed in transfected cells; host or cells: Xenopus laevis oocytes (mRNA injection)
T1 sequence (P51575 1-399): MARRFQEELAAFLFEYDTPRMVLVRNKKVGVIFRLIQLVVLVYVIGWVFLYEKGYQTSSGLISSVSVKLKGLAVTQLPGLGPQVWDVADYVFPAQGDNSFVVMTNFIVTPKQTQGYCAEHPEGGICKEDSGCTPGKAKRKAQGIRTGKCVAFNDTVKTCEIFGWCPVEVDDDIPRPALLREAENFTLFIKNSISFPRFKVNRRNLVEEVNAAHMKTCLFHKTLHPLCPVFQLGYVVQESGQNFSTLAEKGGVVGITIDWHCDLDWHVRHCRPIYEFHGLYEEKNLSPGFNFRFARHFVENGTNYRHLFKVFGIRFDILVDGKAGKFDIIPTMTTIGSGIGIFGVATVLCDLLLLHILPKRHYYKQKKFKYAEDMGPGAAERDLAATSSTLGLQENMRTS
Description: (§1) Oocytes were purchased defolliculated from Ecocyte Bioscience in Barth’s Solution (88 mM NaCl, 1 mM KCl, 0.82 mM MgSO4, 0.33 mM Ca(NO3)2, 0.41 mM CaCl2, 2.4 mM NaHCO3, 5 mM Tris-HCl) supplemented with penicillin (100 U/mL) and streptomycin (100 µg/mL). Xenopus laevis oocytes were then injected with 50 nL of 100 ng/μL hP2X1 mRNA that was made from linearized full-length wild-type or mutant pcDNA 3.1x according to the protocol provided in the mMessage mMachine kit (Invitrogen). Injected oocytes were allowed to express for ~20 hours at 18 °C before recording was performed.
(§2) Data acquisition was performed using the Oocyte Clamp OC-725C amplifier and pClamp 8.2 software. Buffers were applied using a gravity fed RSC-200 Rapid Solution Changer that flows at ~5 mL/min. All experiments use Sutter filamented glass 10 cm in length with an inner diameter of 0.69 mm and an outer diameter of 1.2 mm to impale oocytes and clamp the holding voltage at −60 mV. Experiments were recorded in buffer containing 10 mM HEPES (pH 7.4), 140 mM NaCl, 5 mM KCl, 2 mM CaCl2, 2 mM MgCl2, and 10 mM glucose.
(§3) Excitatory responses to a dilution series of ATP between 6.4 nM and 10 mM were examined across the different mutants. Each evoked response was normalized to an initial ATP-induced current evoked by the following concentrations: 500 µM ATP for R292A, 2 mM ATP for K309A, and 100 µM ATP for the remaining mutants and wild-type receptor. The data was fit in Prism 9 using the nonlinear regression named “EC50, x is concentration” to afford EC50 values. This value was then averaged amongst each singular condition and reported as an average plus or minus the standard deviation.

hP2X1 D170A = molecular target: T2, hP2X1 D170A (Homo sapiens, UniProt P51575, D170A); experiment: ATP dose response (EC50), TEVC in oocytes; assay type: cell-based; conditions: for Normalized Current: hP2X1 D170A
T2 construct: hP2X1 mRNA that was made from linearized full-length wild-type or mutant pcDNA 3.1x; expressed in transfected cells; host or cells: Xenopus laevis oocytes (mRNA injection)
T2 sequence (P51575 1-399 D170A): T1 sequence (P51575 1-399) with D170A
Description: as §1, §2, §3

hP2X1 K140A = molecular target: T3, hP2X1 K140A (Homo sapiens, UniProt P51575, K140A); experiment: ATP dose response (EC50), TEVC in oocytes; assay type: cell-based; conditions: for Normalized Current: hP2X1 K140A
T3 construct: hP2X1 mRNA that was made from linearized full-length wild-type or mutant pcDNA 3.1x; expressed in transfected cells; host or cells: Xenopus laevis oocytes (mRNA injection)
T3 sequence (P51575 1-399 K140A): T1 sequence (P51575 1-399) with K140A
Description: as §1, §2, §3

hP2X1 R139A = molecular target: T4, hP2X1 R139A (Homo sapiens, UniProt P51575, R139A); experiment: ATP dose response (EC50), TEVC in oocytes; assay type: cell-based
T4 construct: hP2X1 mRNA that was made from linearized full-length wild-type or mutant pcDNA 3.1x; expressed in transfected cells; host or cells: Xenopus laevis oocytes (mRNA injection)
T4 sequence (P51575 1-399 R139A): T1 sequence (P51575 1-399) with R139A
Description: as §1, §2, §3

P2X7 receptor = molecular target: P2X7 receptor; parameters: method as in PMID 33125712, PMID 18657557; conditions: read-out: apparent affinity for ATP, cited from earlier work

EC50 (hP2X1 WT; TEVC, Xenopus laevis oocytes, mean ± SD, triplicate, read-out: apparent affinity (EC50) of ATP): 1.7 ± 0.3 µM
Normalized Current (hP2X1 WT; [ATP] 1.000E-04 M): 1.041 and 0.9705 and 0.9151
Normalized Current (hP2X1 WT; [ATP] 1.600E-07 M): 0.08801 and 0.07128 and 0.05984
Normalized Current (hP2X1 WT; [ATP] 4.000E-06 M): 0.7387 and 0.5911 and 0.5682
Normalized Current (hP2X1 WT; [ATP] 5.000E-04 M): 1.055 and 1.025 and 0.9207
Normalized Current (hP2X1 WT; [ATP] 8.000E-07 M): 0.4523 and 0.3946 and 0.3316
Hill slope of activation by ATP (hP2X1 WT; mean ± SD of three EC50 traces): 0.9 ± 0.2
Normalized Current (hP2X1 D170A; [ATP] 1.000E-04 M): 0.9915 and 0.8795 and 0.8416
Normalized Current (hP2X1 D170A; [ATP] 2.000E-05 M): 0.8809 and 0.7486 and 0.74
Normalized Current (hP2X1 D170A; [ATP] 3.200E-08 M): 0.000000
Normalized Current (hP2X1 D170A; [ATP] 4.000E-06 M): 0.723 and 0.5398 and 0.4488
Normalized Current (hP2X1 D170A; [ATP] 5.000E-04 M): 1.029 and 1.009 and 0.9611
Normalized Current (hP2X1 K140A; [ATP] 1.000E-04 M): 1.047 and 0.9489 and 0.9169
Normalized Current (hP2X1 K140A; [ATP] 4.000E-06 M): 0.661 and 0.6317 and 0.5508
Normalized Current (hP2X1 K140A; [ATP] 5.000E-04 M): 1.045 and 0.9875 and 0.9677
Normalized Current (hP2X1 R139A; [ATP] 1.000E-04 M): 0.9464 and 0.9017 and 0.9178
Normalized Current (hP2X1 R139A; [ATP] 2.000E-05 M): 0.8825 and 0.6805 and 0.736
Normalized Current (hP2X1 R139A; [ATP] 4.000E-06 M): 0.6603 and 0.5057 and 0.6077
Normalized Current (hP2X1 R139A; [ATP] 5.000E-04 M): 1.062 and 0.93 and 1.008
Structure (SMILES): Nc1ncnc2c1ncn2[C@@H]1O[C@H](COP(=O)(O)OP(=O)(O)OP(=O)(O)O)[C@@H](O)[C@H]1O [ATP]
apparent affinity (EC50) of ATP, effect of mutation (hP2X1 D170A; hP2X1 D170A vs wild-type, TEVC): do not appear to significantly change; also recorded: no major effect; also recorded: does not significantly impact
apparent affinity (EC50) of ATP, effect of mutation (hP2X1 K140A; hP2X1 K140A vs wild-type, TEVC): do not appear to significantly change; also recorded: no major effect; also recorded: did not impact
EC50 of ATP (hP2X1 R139A; TEVC): no effect; also recorded: without affecting
EC50 (P2X7 receptor): > 100 µM
EC50 (P2X7 receptor; under certain conditions): > 1000 µM
